Measured values reported in ChEMBL document CHEMBL1201862, “PubChem BioAssay data set” (2004).
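Test compounds were applied to cells in 96-well plates for 48 hours at 5 doses. GI50 is the concentration that inhibits growth by half.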 Active and inactive are the calls of the source. Rule as the data show it: active = GI50 up to about 1.1 µM and inactive = higher.

Experiments:
Test in all cases: inhibition of tumour cell growth, NCI panel, 48 h
786-0 = test system: 786-0
A498 = test system: A498
A549 = test system: A549
ACHN = test system: ACHN
BT-549 = test system: BT-549
CAKI-1 = test system: CAKI-1
CCRF-CEM = test system: CCRF-CEM
COLO 205 = test system: COLO 205
DU-145 = test system: DU-145
EKVX = test system: EKVX
HCC 2998 = test system: HCC 2998
HCT-116 = test system: HCT-116
HCT-15 = test system: HCT-15
HOP-92 = test system: HOP-92
HT-29 = test system: HT-29
Hs-578T = test system: Hs-578T
IGROV-1 = test system: IGROV-1
K562 = test system: K562
KM12 = test system: KM12
LOX IMVI = test system: LOX IMVI
M14 = test system: M14
MCF7 = test system: MCF7
MDA-MB-231 = test system: MDA-MB-231
MDA-MB-435 = test system: MDA-MB-435
MDA-N = test system: MDA-N
MOLT-4 = test system: MOLT-4
Malme-3M = test system: Malme-3M
NCI-H226 = test system: NCI-H226
NCI-H23 = test system: NCI-H23
NCI-H460 = test system: NCI-H460
NCI-H522 = test system: NCI-H522
NCI/ADR-RES = test system: NCI/ADR-RES
OVCAR-3 = test system: OVCAR-3
OVCAR-4 = test system: OVCAR-4
OVCAR-5 = test system: OVCAR-5
OVCAR-8 = test system: OVCAR-8
PC-3 = test system: PC-3
RPMI-8226 = test system: RPMI-8226
RXF 393 = test system: RXF 393
SF-268 = test system: SF-268
SF-295 = test system: SF-295
SF-539 = test system: SF-539
SK-MEL-28 = test system: SK-MEL-28
SK-MEL-2 = test system: SK-MEL-2
SK-MEL-5 = test system: SK-MEL-5
SK-OV-3 = test system: SK-OV-3
SN12C = test system: SN12C
SNB-19 = test system: SNB-19
SNB-75 = test system: SNB-75
SW-620 = test system: SW-620
T47D = test system: T47D
TK-10 = test system: TK-10
U-251 = test system: U-251
UACC-257 = test system: UACC-257
UACC-62 = test system: UACC-62
UO-31 = test system: UO-31
HL-60 = test system: HL-60
HOP-62 = test system: HOP-62
SR = test system: SR

O=c1cc(N2CCN(c3cc(=O)n4ccccc4n3)CC2)oc2ccccc12
GI50 (786-0): > 76 µM (inactive)
GI50 (A498): > 84.5 µM (inactive)
GI50 (A549): 32.3 µM (inactive)
GI50 (ACHN): > 100 µM (inactive)
GI50 (BT-549): 68.1 µM (inactive)
GI50 (CAKI-1): 34 µM (inactive)
GI50 (CCRF-CEM): 6.7 µM (inactive)
GI50 (COLO 205): 61 µM (inactive)
GI50 (DU-145): > 100 µM (inactive)
GI50 (EKVX): 31.2 µM (inactive)
GI50 (HCC 2998): 33.5 µM (inactive)
GI50 (HCT-116): > 100 µM (inactive)
GI50 (HCT-15): 30.6 µM
GI50 (HOP-92): 72.4 µM (inactive)
GI50 (HT-29): 38 µM (inactive)
GI50 (Hs-578T): 36.2 µM (inactive)
GI50 (IGROV-1): 95.5 µM (inactive)
GI50 (K562): 47.1 µM (inactive)
GI50 (KM12): 35.4 µM (inactive)
GI50 (LOX IMVI): > 100 µM (inactive)
GI50 (M14): 34.7 µM (inactive)
GI50 (MCF7): > 70.5 µM (inactive)
GI50 (MDA-MB-231): 61.9 µM (inactive)
GI50 (MDA-MB-435): 55 µM (inactive)
GI50 (MDA-N): > 100 µM (inactive)
GI50 (MOLT-4): 33.6 µM (inactive)
GI50 (Malme-3M): > 100 µM (inactive)
GI50 (NCI-H226): > 76.2 µM (inactive)
GI50 (NCI-H23): 99.1 µM (inactive)
GI50 (NCI-H460): 26.6 µM (inactive)
GI50 (NCI-H522): 29.8 µM (inactive)
GI50 (NCI/ADR-RES): > 66.8 µM (inactive)
GI50 (OVCAR-3): > 100 µM (inactive)
GI50 (OVCAR-4): > 100 µM (inactive)
GI50 (OVCAR-5): > 100 µM (inactive)
GI50 (OVCAR-8): > 51.4 µM (inactive)
GI50 (PC-3): > 100 µM (inactive)
GI50 (RPMI-8226): 23 µM (inactive)
GI50 (RXF 393): 36.1 µM (inactive)
GI50 (SF-268): 25.6 µM (inactive)
GI50 (SF-295): > 76.7 µM (inactive)
GI50 (SF-539): > 100 µM (inactive)
GI50 (SK-MEL-28): > 100 µM (inactive)
GI50 (SK-MEL-2): > 100 µM (inactive)
GI50 (SK-MEL-5): 65.9 µM (inactive)
GI50 (SK-OV-3): > 100 µM (inactive)
GI50 (SN12C): > 92.7 µM (inactive)
GI50 (SNB-19): > 55.5 µM (inactive)
GI50 (SNB-75): 9.06 µM (inactive)
GI50 (SW-620): 29.7 µM (inactive)
GI50 (T47D): > 73.5 µM (inactive)
GI50 (TK-10): > 100 µM (inactive)
GI50 (U-251): > 58.1 µM (inactive)
GI50 (UACC-257): > 24 µM (inactive)
GI50 (UACC-62): > 100 µM (inactive)
GI50 (UO-31): 38.1 µM (inactive)

Cc1ccc(-n2cc(-c3ccc(Cl)cc3)c3c(NNC(=S)NCc4ccccc4)ncnc32)cc1
GI50 (786-0): 9.77 µM (inactive)
GI50 (A498): 23.6 µM (inactive)
GI50 (A549): 4 µM (inactive)
GI50 (ACHN): 13.6 µM (inactive)
GI50 (BT-549): 17.9 µM (inactive)
GI50 (CAKI-1): 5.46 µM (inactive)
GI50 (CCRF-CEM): 2.77 µM (inactive)
GI50 (COLO 205): 10.7 µM (inactive)
GI50 (DU-145): 24.9 µM (inactive)
GI50 (EKVX): 13.1 µM (inactive)
GI50 (HCT-116): 4.66 µM (inactive)
GI50 (HCT-15): 6.08 µM
GI50 (HL-60): 6.98 µM (inactive)
GI50 (HOP-62): 16.6 µM (inactive)
GI50 (HOP-92): 25.4 µM (inactive)
GI50 (HT-29): 14.3 µM (inactive)
GI50 (Hs-578T): 60.7 µM (inactive)
GI50 (IGROV-1): 12.2 µM (inactive)
GI50 (K562): 4.99 µM (inactive)
GI50 (KM12): 3.66 µM (inactive)
GI50 (LOX IMVI): 5.06 µM (inactive)
GI50 (M14): 10.5 µM (inactive)
GI50 (MDA-MB-231): 17.8 µM (inactive)
GI50 (MDA-MB-435): 8.02 µM (inactive)
GI50 (MDA-N): 14.9 µM (inactive)
GI50 (MOLT-4): 6.38 µM (inactive)
GI50 (Malme-3M): 20.3 µM (inactive)
GI50 (NCI-H226): 92.7 µM (inactive)
GI50 (NCI-H23): 13.5 µM (inactive)
GI50 (NCI-H460): 2.07 µM (inactive)
GI50 (NCI-H522): 4.53 µM (inactive)
GI50 (NCI/ADR-RES): 6.37 µM (inactive)
GI50 (OVCAR-3): 4.56 µM (inactive)
GI50 (OVCAR-4): 17.5 µM (inactive)
GI50 (OVCAR-5): 11.3 µM (inactive)
GI50 (OVCAR-8): 6.22 µM (inactive)
GI50 (PC-3): 2.59 µM (inactive)
GI50 (RPMI-8226): 9.29 µM (inactive)
GI50 (RXF 393): 14.3 µM (inactive)
GI50 (SF-268): 8.53 µM (inactive)
GI50 (SF-295): 6.76 µM (inactive)
GI50 (SF-539): 13.6 µM (inactive)
GI50 (SK-MEL-28): 16.1 µM (inactive)
GI50 (SK-MEL-2): 3.17 µM (inactive)
GI50 (SK-MEL-5): 5.09 µM (inactive)
GI50 (SK-OV-3): 16.3 µM (inactive)
GI50 (SN12C): 7.21 µM (inactive)
GI50 (SNB-19): 23.3 µM (inactive)
GI50 (SR): 3.61 µM (inactive)
GI50 (SW-620): 4.69 µM (inactive)
GI50 (T47D): 24.8 µM (inactive)
GI50 (TK-10): 11.1 µM (inactive)
GI50 (U-251): 5.36 µM (inactive)
GI50 (UACC-257): 12.6 µM (inactive)
GI50 (UACC-62): 18.1 µM (inactive)
GI50 (UO-31): 10.1 µM (inactive)
